Experimental data taken from patent US20120329787A1, “FUNGICIDAL PYRANONES AND OXAZINONES” (E.I. DU PONT DE NEMOURS AND COMPANY, priority 2011, published 2012).
Marks after values point to notes of the source that are not given here.

Experiments:
Type in all cases: in vivo
[1] = test system: Puccinia recondita f. sp. tritici; test: Test H: wheat leaf rust, spray on wheat seedlings the day before inoculation; conditions: sprayed before inoculation; for pest or weed control at 200 ppm: Puccinia recondita, 168 h, read-out: Test H rating (100 = 100% disease control, 0 = no disease control)
Description: General protocol for preparing test suspensions for Tests A-I: the test compounds were first dissolved in acetone in an amount equal to 3% of the final volume and then suspended at the desired concentration (in ppm) in acetone and purified water (50/50 mix by volume) containing 250 ppm of the surfactant Trem® 014 (polyhydric alcohol esters). The resulting test suspensions were then used in Tests A-I. Spraying a 200 ppm test suspension to the point of run-off on the test plants was the equivalent of a rate of 500 g/ha. […] (An asterisk “*” next to the rating value indicates a 40 ppm test suspension was used.) The test suspension was sprayed to the point of run-off on wheat seedlings. The following day, the seedlings were inoculated with a spore suspension of Puccinia recondita f. sp. tritici (the causal agent of wheat leaf rust) and incubated in a saturated atmosphere at 20° C. for 24 h, and then moved to a growth chamber at 20° C. for 6 days, after which time visual disease ratings were made Results for Tests A-I are given in Table A. […] A dash (-) indicates no test results. All results are for 200 ppm except where followed by an asterisk “*”, which indicates a 40 ppm.

[2] = test system: Septoria tritici; test: Test F: wheat leaf blotch, spray on wheat seedlings the day before inoculation; conditions: for pest or weed control at 200 ppm: Zymoseptoria tritici, 504 h, read-out: Test F rating (100 = 100% disease control, 0 = no disease control)
Description: General protocol for preparing test suspensions for Tests A-I: the test compounds were first dissolved in acetone in an amount equal to 3% of the final volume and then suspended at the desired concentration (in ppm) in acetone and purified water (50/50 mix by volume) containing 250 ppm of the surfactant Trem® 014 (polyhydric alcohol esters). The resulting test suspensions were then used in Tests A-I. Spraying a 200 ppm test suspension to the point of run-off on the test plants was the equivalent of a rate of 500 g/ha. […] (An asterisk “*” next to the rating value indicates a 40 ppm test suspension was used.) The test suspension was sprayed to the point of run-off on wheat seedlings. The following day, the seedlings were inoculated with a spore suspension of Septoria tritici (the causal agent of wheat leaf blotch) and incubated in a saturated atmosphere at 24° C. for 48 h, and then the seedlings were moved to a growth chamber at 20° C. for 19 additional days, after which time visual disease ratings were made. […] A dash (-) indicates no test results. All results are for 200 ppm except where followed by an asterisk “*”, which indicates a 40 ppm.

[3] = test system: Alternaria solani; test: Test B: tomato early blight, spray on tomato seedlings the day before inoculation; conditions: for pest or weed control at 200 ppm: Alternaria solani, 168 h, read-out: Test B rating (100 = 100% disease control, 0 = no disease control)
Description: General protocol for preparing test suspensions for Tests A-I: the test compounds were first dissolved in acetone in an amount equal to 3% of the final volume and then suspended at the desired concentration (in ppm) in acetone and purified water (50/50 mix by volume) containing 250 ppm of the surfactant Trem® 014 (polyhydric alcohol esters). The resulting test suspensions were then used in Tests A-I. Spraying a 200 ppm test suspension to the point of run-off on the test plants was the equivalent of a rate of 500 g/ha. […] (An asterisk “*” next to the rating value indicates a 40 ppm test suspension was used.) The test suspension was sprayed to the point of run-off on tomato seedlings. The following day, the seedlings were inoculated with a spore suspension of Alternaria solani (the causal agent of tomato early blight) and incubated in a saturated atmosphere at 27° C. for 48 h, and then moved to a growth chamber at 20° C. for 5 days, after which time visual disease ratings were made. […] A dash (-) indicates no test results. All results are for 200 ppm except where followed by an asterisk “*”, which indicates a 40 ppm.

[4] = test system: Septoria nodorum; test: Test E: Septoria glume blotch, spray on wheat seedlings the day before inoculation; conditions: for pest or weed control at 200 ppm: Parastagonospora nodorum, 264 h, read-out: Test E rating (100 = 100% disease control, 0 = no disease control)
Description: General protocol for preparing test suspensions for Tests A-I: the test compounds were first dissolved in acetone in an amount equal to 3% of the final volume and then suspended at the desired concentration (in ppm) in acetone and purified water (50/50 mix by volume) containing 250 ppm of the surfactant Trem® 014 (polyhydric alcohol esters). The resulting test suspensions were then used in Tests A-I. Spraying a 200 ppm test suspension to the point of run-off on the test plants was the equivalent of a rate of 500 g/ha. […] (An asterisk “*” next to the rating value indicates a 40 ppm test suspension was used.) The test suspension was sprayed to the point of run-off on wheat seedlings. […] A dash (-) indicates no test results. All results are for 200 ppm except where followed by an asterisk “*”, which indicates a 40 ppm.

[5] = test system: Botrytis cinerea; test: Test A: tomato Botrytis, spray on tomato seedlings the day before inoculation; conditions: for pest or weed control at 200 ppm: Botrytis cinerea, 120 h, read-out: Test A rating (100 = 100% disease control, 0 = no disease control)
Description: General protocol for preparing test suspensions for Tests A-I: the test compounds were first dissolved in acetone in an amount equal to 3% of the final volume and then suspended at the desired concentration (in ppm) in acetone and purified water (50/50 mix by volume) containing 250 ppm of the surfactant Trem® 014 (polyhydric alcohol esters). The resulting test suspensions were then used in Tests A-I. Spraying a 200 ppm test suspension to the point of run-off on the test plants was the equivalent of a rate of 500 g/ha. […] (An asterisk “*” next to the rating value indicates a 40 ppm test suspension was used.) The test suspension was sprayed to the point of run-off on tomato seedlings. The following day, the seedlings were inoculated with a spore suspension of Botrytis cinerea (the causal agent of tomato Botrytis) and incubated in a saturated atmosphere at 20° C. for 48 h, and then moved to a growth chamber at 24° C. for 3 additional days, after which time visual disease ratings were made. […] A dash (-) indicates no test results. All results are for 200 ppm except where followed by an asterisk “*”, which indicates a 40 ppm.

[6] = test system: Puccinia recondita f. sp. tritici; test: Test G: wheat leaf rust, spray on wheat seedlings after inoculation (curative); conditions: sprayed after inoculation; for pest or weed control at 200 ppm: Puccinia recondita, 96 h, read-out: Test G rating (100 = 100% disease control, 0 = no disease control)
Description: General protocol for preparing test suspensions for Tests A-I: the test compounds were first dissolved in acetone in an amount equal to 3% of the final volume and then suspended at the desired concentration (in ppm) in acetone and purified water (50/50 mix by volume) containing 250 ppm of the surfactant Trem® 014 (polyhydric alcohol esters). The resulting test suspensions were then used in Tests A-I. Spraying a 200 ppm test suspension to the point of run-off on the test plants was the equivalent of a rate of 500 g/ha. […] (An asterisk “*” next to the rating value indicates a 40 ppm test suspension was used.) Wheat seedlings were inoculated with a spore suspension of Puccinia recondita f. sp. tritici (the causal agent of wheat leaf rust) and incubated in a saturated atmosphere at 20° C. for 24 h, and then moved to a growth chamber at 20° C. for 2 days. At the end of this time, the test suspension was sprayed to the point of run-off, and then the seedlings were moved to a growth chamber at 20° C. for 4 days after which time visual disease ratings were made. […] A dash (-) indicates no test results. All results are for 200 ppm except where followed by an asterisk “*”, which indicates a 40 ppm.

[7] = test system: Erysiphe graminis f. sp. tritici; test: Test I: wheat powdery mildew, spray on wheat seedlings the day before inoculation; conditions: 200 ppm test suspension; for pest or weed control at 200 ppm: Blumeria graminis, 168 h, read-out: Test I rating (100 = 100% disease control, 0 = no disease control)
Description: General protocol for preparing test suspensions for Tests A-I: the test compounds were first dissolved in acetone in an amount equal to 3% of the final volume and then suspended at the desired concentration (in ppm) in acetone and purified water (50/50 mix by volume) containing 250 ppm of the surfactant Trem® 014 (polyhydric alcohol esters). The resulting test suspensions were then used in Tests A-I. Spraying a 200 ppm test suspension to the point of run-off on the test plants was the equivalent of a rate of 500 g/ha. […] (An asterisk “*” next to the rating value indicates a 40 ppm test suspension was used.) The test suspension was sprayed to the point of run-off on wheat seedlings. The following day, the seedlings were inoculated with a spore dust of Erysiphe graminis f. sp. tritici, (the causal agent of wheat powdery mildew) and incubated in a growth chamber at 20° C. for 7 days, after which time visual disease ratings were made. […] A dash (-) indicates no test results. All results are for 200 ppm except where followed by an asterisk “*”, which indicates a 40 ppm.

[8] = 40 ppm test suspension (asterisk)

| Structure (SMILES) | Test H rating (100 = 100% disease control, 0 = no disease control) [1, 8] | Test F rating (100 = 100% disease control, 0 = no disease control) [2, 8] | Test B rating (100 = 100% disease control, 0 = no disease control) [3, 8] | Test E rating (100 = 100% disease control, 0 = no disease control) [4, 8] | Test A rating (100 = 100% disease control, 0 = no disease control) [5, 8] | Test G rating (100 = 100% disease control, 0 = no disease control) [6, 8] | Test I rating (100 = 100% disease control, 0 = no disease control) [7] | pest or weed control at 200 ppm ([1]; 200 ppm test suspension) | pest or weed control at 200 ppm ([2]; 200 ppm test suspension) | pest or weed control at 200 ppm ([3]; 200 ppm test suspension) | pest or weed control at 200 ppm ([4]; 200 ppm test suspension) | pest or weed control at 200 ppm ([5]; 200 ppm test suspension) | pest or weed control at 200 ppm ([6]; 200 ppm test suspension) | pest or weed control at 200 ppm [7] | Test H rating (100 = 100% disease control, 0 = no disease control) ([1]; 200 ppm test suspension) | Test F rating (100 = 100% disease control, 0 = no disease control) ([2]; 200 ppm test suspension) | Test B rating (100 = 100% disease control, 0 = no disease control) ([3]; 200 ppm test suspension) | Test E rating (100 = 100% disease control, 0 = no disease control) ([4]; 200 ppm test suspension) | Test A rating (100 = 100% disease control, 0 = no disease control) ([5]; 200 ppm test suspension) | Test G rating (100 = 100% disease control, 0 = no disease control) ([6]; 200 ppm test suspension) |
| --- | --- | --- | --- | --- | --- | --- | --- | --- | --- | --- | --- | --- | --- | --- | --- | --- | --- | --- | --- | --- |
| Cc1oc(=O)c(-c2ccccc2F)c(-c2ccccc2Cl)c1-c1ccc(F)cc1F [Compound 35] | 0* % | 99* % | 68* % | 0* % | 100* % | 99* % | 97% | – | – | – | – | – | – | – | – | – | – | – | – | – |
| COc1cc(OC)cc(-c2c(-c3c(F)cc(OC)cc3F)c(C)oc(=O)c2-c2ccccc2F)c1 [Compound 39] | 100* % | 100* % | 100* % | 100* % | 100* % | 82* % | 79% | – | – | – | – | – | – | – | – | – | – | – | – | – |
| Cc1oc(=O)c(C)c(-c2ccc(F)cc2F)c1Br [Compound 41, 5-bromo-4-(2,4-difluorophenyl)-3,6-dimethyl-2H-pyran-2-one] | – | – | – | – | – | – | – | 0% | 0% | 0% | 0% | 67% | 0% | 0% | – | – | – | – | – | – |
| COc1cc(OC)cc(-c2c(C)oc(=O)c(C)c2-c2ccc(F)cc2F)c1 [Compound 42, 4-(2,4-difluorophenyl)-5-(3,5-dimethoxyphenyl)-3,6-dimethyl-2H-pyran-2-one] | – | – | – | – | – | – | – | 100% | 100% | 0% | 0% | 98% | 0% | 99% | – | – | – | – | – | – |
| COc1cc(OC)cc(-c2c(C)oc(=O)c(C)c2-c2c(F)cc(OC)cc2F)c1 [Compound 43] | – | – | – | – | – | – | 100% | – | – | – | – | – | – | – | 100% | 100% | 100% | 100% | 100% | 98% |
| COc1cc(F)c(-c2c(C)oc(=O)c(C)c2-c2c(Cl)c(OC)cc(OC)c2Cl)c(F)c1 [Compound 44] | – | – | – | – | – | – | 0% | – | – | – | – | – | – | – | 96% | 73% | 0% | 0% | 79% | 26% |
| COc1cc(OC)cc(-c2c(-c3ccc(F)cc3Cl)c(C)oc(=O)c2C)c1 [Compound 46] | – | – | – | – | – | – | 99% | – | – | – | – | – | – | – | 100% | 100% | 98% | 95% | 100% | 79% |
